Test results reported in ChEMBL document CHEMBL2311471, “Synthesis of (E)-8-(3-chlorostyryl)caffeine analogues leading to 9-deazaxanthine derivatives as dual A(2A) antagonists/MAO-B inhibitors” (J Med Chem, 2013).

What was measured:
[1] = molecular target: T1, Amine oxidase [flavin-containing] B (Homo sapiens, UniProt P27338); test: Inhibition of human MAOB after 1 hr by luminescence assay
T1 sequence (P27338 whole entry): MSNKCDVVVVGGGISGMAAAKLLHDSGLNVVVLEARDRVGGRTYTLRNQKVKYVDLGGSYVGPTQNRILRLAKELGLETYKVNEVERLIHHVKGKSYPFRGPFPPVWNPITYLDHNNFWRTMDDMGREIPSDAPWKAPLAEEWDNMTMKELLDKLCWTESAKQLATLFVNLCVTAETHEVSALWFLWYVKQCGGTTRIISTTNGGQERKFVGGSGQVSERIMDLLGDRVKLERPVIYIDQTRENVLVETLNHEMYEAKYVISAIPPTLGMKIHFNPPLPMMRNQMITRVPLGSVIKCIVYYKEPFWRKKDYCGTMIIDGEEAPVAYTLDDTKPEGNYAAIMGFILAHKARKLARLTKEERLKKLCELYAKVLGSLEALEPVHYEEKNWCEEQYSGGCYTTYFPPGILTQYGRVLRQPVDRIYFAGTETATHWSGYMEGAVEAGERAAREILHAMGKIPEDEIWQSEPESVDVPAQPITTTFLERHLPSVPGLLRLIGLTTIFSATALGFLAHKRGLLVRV

[2] = molecular target: Adenosine receptor A2a (Homo sapiens, UniProt P29274); test: Displacement of [3H]ZM241385 from human adenosine A2A receptor expressed in HEK293 cells after 1 hr by microbeta scintillation counting analysis; assay type: cell-based
[3] = molecular target: T2, Amine oxidase [flavin-containing] A (Homo sapiens, UniProt P21397); test: Inhibition of human MAOA after 1 hr by luminescence assay
T2 sequence (P21397 whole entry): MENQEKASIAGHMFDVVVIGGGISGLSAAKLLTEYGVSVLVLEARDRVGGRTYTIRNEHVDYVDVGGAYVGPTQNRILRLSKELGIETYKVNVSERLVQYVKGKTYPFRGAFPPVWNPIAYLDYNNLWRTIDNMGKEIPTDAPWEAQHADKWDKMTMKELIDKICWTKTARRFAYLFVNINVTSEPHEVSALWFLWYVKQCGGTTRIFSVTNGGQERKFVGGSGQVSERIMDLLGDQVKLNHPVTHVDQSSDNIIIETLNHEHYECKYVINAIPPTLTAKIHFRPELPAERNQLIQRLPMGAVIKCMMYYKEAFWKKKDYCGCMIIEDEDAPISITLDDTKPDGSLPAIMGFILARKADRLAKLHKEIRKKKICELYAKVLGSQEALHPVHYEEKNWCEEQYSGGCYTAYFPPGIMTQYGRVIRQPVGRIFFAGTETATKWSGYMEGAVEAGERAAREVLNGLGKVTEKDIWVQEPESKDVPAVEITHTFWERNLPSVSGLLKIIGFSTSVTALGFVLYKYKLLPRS

Sequence of Adenosine receptor A2a (P29274 whole entry): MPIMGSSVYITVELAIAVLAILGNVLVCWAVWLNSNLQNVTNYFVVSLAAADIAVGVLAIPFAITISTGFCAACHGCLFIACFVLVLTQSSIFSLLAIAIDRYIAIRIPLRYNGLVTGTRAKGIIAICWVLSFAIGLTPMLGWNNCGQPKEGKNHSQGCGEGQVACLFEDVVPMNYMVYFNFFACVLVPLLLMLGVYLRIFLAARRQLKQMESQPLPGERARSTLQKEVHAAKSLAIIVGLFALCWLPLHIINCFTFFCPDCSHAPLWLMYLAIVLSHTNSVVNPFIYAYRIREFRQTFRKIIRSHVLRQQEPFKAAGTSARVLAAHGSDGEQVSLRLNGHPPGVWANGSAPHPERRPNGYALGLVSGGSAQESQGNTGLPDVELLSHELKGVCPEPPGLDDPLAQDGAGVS

Cn1c(=O)c2c(cc(C#Cc3cccc(Cl)c3)n2C)n(C)c1=O
IC50 [1]: 173 nM | Ki [2]: > 10000 nM | IC50 [3]: > 10000 nM

CCn1c(=O)c2c(cc(/C=C/c3ccc(Cl)cc3)n2C)n(CC)c1=O
IC50 [1]: > 1000 nM | Ki [2]: > 10000 nM

Cn1c(=O)c2c(cc(/C=C/c3cccc(Cl)c3)n2C)n(C)c1=O
IC50 [1]: 1480 nM | Ki [2]: 430 nM

CCn1c(=O)c2c(nc(/C=C/c3ccc(OC)c(OC)c3)n2C)n(CC)c1=O [ISTRADEFYLLINE]
IC50 [1]: > 10000 nM

Cn1c(=O)c2c(cc(OCc3ccc4ccccc4c3)n2C)n(C)c1=O
IC50 [1]: > 1000 nM | Ki [2]: > 10000 nM | IC50 [3]: > 10000 nM

Cn1c(=O)c2c(c3ccc(-c4cccc(Cl)c4)cc3n2C)n(C)c1=O
IC50 [1]: 1390 nM | Ki [2]: > 1000 nM | IC50 [3]: 3110 nM

Cn1c(=O)c2c(cc(/C=C/c3cccc(C#N)c3)n2C)n(C)c1=O
IC50 [1]: > 10000 nM | Ki [2]: > 10000 nM

Cn1ccc2nc(/C=C/c3ccccc3)n(C)c2c1=O
IC50 [1]: > 10000 nM | Ki [2]: > 10000 nM

Cn1c(=O)c2c(cc(/C=C/c3cccc(C(F)(F)F)c3)n2C)n(C)c1=O
IC50 [1]: 480 nM | Ki [2]: > 10000 nM | IC50 [3]: 5690 nM

CCn1c(=O)c2c(cc(C#Cc3ccc(Cl)cc3)n2C)n(CC)c1=O
IC50 [1]: > 1000 nM | Ki [2]: > 10000 nM

Cn1c(=O)c2c(cc(-n3cc(-c4ccc(Cl)cc4)nn3)n2C)n(C)c1=O
IC50 [1]: 182 nM | Ki [2]: > 10000 nM | IC50 [3]: 726 nM

Cn1c(=O)c2c(cc(/C=C/c3ccc(Br)cc3)n2C)n(C)c1=O
IC50 [1]: 267 nM | Ki [2]: > 10000 nM | IC50 [3]: 1630 nM

CC(=O)c1ccc(/C=C/c2cc3c(c(=O)n(C)c(=O)n3C)n2C)cc1
IC50 [1]: 587 nM | Ki [2]: 93.9 nM | IC50 [3]: > 10000 nM

CCn1c(/C=C/c2ccc(Cl)cc2)cc2c1c(=O)n(C)c(=O)n2C
IC50 [1]: > 1000 nM | Ki [2]: > 10000 nM

Cn1c(/C=C/c2ccccc2)nc2c1ccc(=O)n2C
IC50 [1]: > 10000 nM | Ki [2]: > 10000 nM

CCCOc1ccc(/C=C/c2cc3c(c(=O)n(C)c(=O)n3C)n2C)cc1
IC50 [1]: 1370 nM | Ki [2]: 307 nM | IC50 [3]: 1300 nM

Cn1c(=O)c2c(cc(C#CCc3ccccc3)n2C)n(C)c1=O
IC50 [1]: > 1000 nM | Ki [2]: > 10000 nM

CN(C(=O)/C=C/c1ccccc1)c1cn(C)c(=O)n(C)c1=O
IC50 [1]: > 10000 nM | Ki [2]: > 1000 nM

Cn1c(=O)c2c(cc(/C=C/c3cccc(N)n3)n2C)n(C)c1=O
IC50 [1]: > 10000 nM | Ki [2]: 887 nM

Cn1c(=O)c2c(cc(/C=C/c3ccccc3O)n2C)n(C)c1=O
IC50 [1]: > 1000 nM | Ki [2]: 1140 nM

Cn1c(=O)c2c(cc(C#Cc3ccc(Cl)cc3)n2C)n(C)c1=O
IC50 [1]: 67.8 nM | Ki [2]: > 10000 nM | IC50 [3]: 2020 nM

Cn1c(=O)c2c(cc(/C=C/c3ccc(C#N)cc3)n2C)n(C)c1=O
IC50 [1]: 543 nM | Ki [2]: > 1000 nM | IC50 [3]: > 10000 nM

Cn1c(=O)c2c(cc(OCc3ccc(Cl)cc3)n2C)n(C)c1=O
IC50 [1]: 48.1 nM | Ki [2]: > 10000 nM | IC50 [3]: 2870 nM

Cn1c(=O)c2c(cc(/C=C/c3ccc(F)cc3)n2C)n(C)c1=O
IC50 [1]: 175 nM | Ki [2]: 423 nM | IC50 [3]: 812 nM

Cn1c(=O)c2c(cc(Oc3cccc(-c4ccccc4)c3)n2C)n(C)c1=O
IC50 [1]: > 10000 nM | Ki [2]: > 10000 nM

Cn1c(=O)c2c(cc(/C=C/c3ccc(C(F)(F)F)cc3)n2C)n(C)c1=O
IC50 [1]: 432 nM | Ki [2]: 531 nM | IC50 [3]: > 10000 nM

Cn1c(=O)c2c(cc(/C=C/c3ccc(Cl)c(Cl)c3)n2C)n(C)c1=O
IC50 [1]: 133 nM | Ki [2]: > 10000 nM

CC(=O)c1cccc(/C=C/c2cc3c(c(=O)n(C)c(=O)n3C)n2C)c1
IC50 [1]: > 10000 nM | Ki [2]: > 10000 nM

Cn1c(=O)c2c(cc(/C=C/c3ccccc3)n2C)n(C)c1=O
IC50 [1]: 1580 nM | Ki [2]: 170 nM

Cn1c(=O)c2c(cc(/C=C/c3ccc(S(C)(=O)=O)cc3)n2C)n(C)c1=O
IC50 [1]: > 1000 nM | Ki [2]: > 1000 nM

CCn1c(=O)c2c(cc(OCc3ccc(Cl)cc3)n2C)n(CC)c1=O
IC50 [1]: > 1000 nM | Ki [2]: > 10000 nM

Cn1c(=O)c2c(cc(NC(=O)c3ccc(Cl)cc3)n2C)n(C)c1=O
IC50 [1]: > 10000 nM | Ki [2]: > 10000 nM

Cn1c(=O)c2c(cc(Oc3cccc(Cl)c3)n2C)n(C)c1=O
IC50 [1]: > 10000 nM | Ki [2]: > 10000 nM

COc1cccc(/C=C/c2cc3c(c(=O)n(C)c(=O)n3C)n2C)c1
IC50 [1]: 370 nM | Ki [2]: 390 nM | IC50 [3]: 1240 nM

Cn1c(=O)c2c(nc(/C=C/c3ccc(Cl)cc3)n2C)n(C)c1=O
IC50 [1]: 430 nM | Ki [2]: 141 nM | IC50 [3]: > 10000 nM

Cn1c(=O)c2c(cc(OCc3ccc(Cl)c(C(F)(F)F)c3)n2C)n(C)c1=O
IC50 [1]: 583 nM | Ki [2]: > 10000 nM | IC50 [3]: > 10000 nM

Cn1c(=O)c2c(cc(/C=C/c3ccncc3)n2C)n(C)c1=O
IC50 [1]: > 10000 nM | Ki [2]: > 10000 nM

Cn1c(=O)c2c(cc(/C=C/c3cccc(O)c3)n2C)n(C)c1=O
IC50 [1]: > 1000 nM | Ki [2]: > 1000 nM

COc1ccc(/C=C/c2cc3c(c(=O)n(C)c(=O)n3C)n2C)cc1
IC50 [1]: 762 nM | Ki [2]: 247 nM | IC50 [3]: > 1000 nM

Cn1c(=O)c2c(cc(/C=C/c3ccc4c(c3)OCO4)n2C)n(C)c1=O
IC50 [1]: > 1000 nM | Ki [2]: 467 nM

Cn1c(=O)c2c(cc(/C=C/c3ccc(O)cc3)n2C)n(C)c1=O
IC50 [1]: > 10000 nM | Ki [2]: > 10000 nM

Cn1c(=O)c2c(cc(-c3nc4ccc(Cl)cc4o3)n2C)n(C)c1=O
IC50 [1]: > 1000 nM | Ki [2]: > 1000 nM

Cn1c(=O)c2c(c3ccc(-c4ccccc4)cc3n2C)n(C)c1=O
IC50 [1]: 7630 nM | Ki [2]: > 10000 nM

Cn1c(=O)c2c(c3cc(OCc4ccccc4)ccc3n2C)n(C)c1=O
IC50 [1]: 5220 nM | Ki [2]: > 1000 nM | IC50 [3]: > 10000 nM
